Patent US20070265223A1, “COMPOSITIONS AND METHODS OF ENHANCING SURVIVABILITY AND REDUCING INJURY OF CELLS, TISSUES, ORGANS, AND ORGANISMS UNDER HYPOXIC OR ISCHEMIC CONDITIONS” (IKARIA, INC., priority 2006, published 2007)
Read-outs that look alike come from different tables or passages of the source.

Tests used:
[1] = test system: rats subjected to lethal hypoxia; assay: Protection of rats from lethal hypoxia using 5′-AMP; type: in vivo, rat (Sprague Dawley); conditions: rat RJVC35; 40 mM 5′AMP bolus 258 ul then 31.7 ul/min for 66.4 min, total 270 uM/kg; saline control 8.6 min
[2] = test system: mice subjected to lethal hypoxia; assay: Protection of mice from lethal hypoxia using 5′-AMP; type: in vivo, mouse (C57BI/6); conditions: for survival of exposure to hypoxia: 4% oxygen for 60 min; for time to full recovery from lowest temperature: after return to ambient air
Experimental: The ability of 5′-AMP to protect mice from lethal hypoxia was determined by comparing the effects of hypoxia on mice treated with 5′-AMP to the effects of hypoxia on untreated mice. Male C57BI/6 mice, 5-6 weeks old, with implanted jugular vein catheter (Taconic) were implanted dorsally with a subcutaneous RFID temperature sensor (IPTT-300, Bio Medic Data Systems, Inc.) and allowed to recover for at least 24 hours. Adenosine-5′-monophosphate (AMP sodium salt, Sigma) was dissolved in water, the osmolarity was adjusted with sodium chloride to 300 mOsm, the pH was adjusted with NaOH to 6.3, and the solution was filtered through a 0.2 um filter. The final AMP concentration was 40 mM. Mice were placed into a tall glass-bottom jar with opaque walls and infused via the jugular vein at a rate of 0.8 ul/min for 59.5 min followed by 1.6 ul/min for 12.8 min (total AMP dose=145 umol/kg) with a syringe pump (Harvard Apparatus), until their subcutaneous temperature had decreased to about 33° C. The infusion was stopped, and the mice were exposed for 60 min to an atmosphere of 4% oxygen constructed by mixing air and nitrogen using mass flow controllers (Sierra Instruments). During the infusion and exposure to hypoxia, the animals' subcutaneous temperature was read every 3-5 min and their vital signs were monitored. At the end if the hypoxic period, the animals were removed to ambient air. Temperature measurements were continued until the animals' temperature had returned to the normal range (FIGS. 1A and 1B). A control mouse was exposed to hypoxia, and its time of death was recorded.
The same procedure described above was repeated under conditions wherein the mouse treated with 5′AMP received a constant infusion of 40 mM AMP at 1.6 ul/min for 26.5 min (total AMP dose of 69 umol/kg) until its subcutaneous temperature had reached 33 C. In this case, the AMP-infused mouse (MJVC83) survived exposure to hypoxia for 60 min and recovered fully from the lowest temperature of 24° C. within 1 hour. The control mouse (MJVC84) died after 8.5 min of hypoxia with a final temperature of 32.7° C. (FIGS. 2A and 2B).

[3] = treatment of animals; Zhang et al., Nature 2006; cited from earlier work
[4] = cited from earlier work
[5] = test system: mice subjected to lethal hypoxia; assay: Protection of mice from lethal hypoxia using adenosine; type: in vivo, mouse (C57BI/6); conditions: two mice
Experimental: The ability of adenosine to protect mice from lethal hypoxia was determined by comparing the effects of hypoxia on mice treated with adenosine to the effects of hypoxia on untreated mice. Male C57BI/6 mice, 5-8 weeks old, with implanted jugular vein catheter (Taconic) were implanted dorsally with a subcutaneous RFID temperature sensor (PTT-300, Bio Medic Data Systems, Inc.) and allowed to recover for at least 24 hours after implantation. Mice were injected with adenosine (19 mM, 3.2 μl/min total dose approximately 27 mg/kg) and temperature was monitored via the temperature sensor until subcutaneous body temperature had decreased to about 33° C. The infusion was stopped, and these mice, as well as control mice injected with sodium chloride) were exposed for 60 min to an atmosphere of 4% oxygen constructed by mixing air and nitrogen using mass flow controllers (Sierra Instruments). During the infusion and exposure to hypoxia, the animals' subcutaneous temperature was monitored every 3-5 min and their vital signs were monitored. In parallel, a control mouse was injected with vehicle (sodium chloride; NaCI; 137 mM, 3.2 μl/min, total dose of NaCl administered was approximately 41 mg/kg) and put into a hypoxic atmosphere (4% O2) at the same time as the mouse injected with adenosine, and its behavior and body temperature monitored. Following 60 min in hypoxic conditions, the mice (MJVC104 and MJVC 108) treated with adenosine were transferred into room air, and recovery of the mice was recorded by observing behavior and monitoring body temperature. […] The control mice (MJVC105 and MJVC107) died after approximately six minutes in the hypoxic atmosphere (4% O2; FIGS. 4B and 5B).

[6] = adenosine approximately 27 mg/kg, after 60 min 4% O2

With `Nc1ncnc2c1ncn2[C@@H]1O[C@H](COP(=O)(O)O)[C@@H](O)[C@H]1O` [5′-AMP, Adenosine-5′-monophosphate] as the molecule, how does the “time of survival in 3.5% oxygen” value [1] read?
Its value is 38.2 min.

And the “survival of exposure to hypoxia” value ([2]; mouse MJVC80, 40 mM AMP jugular vein infusion 0.8 ul/min 59.5 min then 1.6 ul/min 12.8 min, total 145 umol/kg)?
Its value is “survived”.

And the “time to full recovery from lowest temperature” value ([2]; mouse MJVC80, total AMP dose 145 umol/kg)?
The value was ≤ 1 h.

And the “survival of exposure to hypoxia” value ([2]; mouse MJVC83, constant infusion 40 mM AMP 1.6 ul/min 26.5 min, total 69 umol/kg)?
Its value is “survived”.

And the “time to full recovery from lowest temperature” value ([2]; mouse MJVC83, total AMP dose 69 umol/kg)?
Its value is ≤ 1 h.

What about the “induction of torpor (depressed body temperature, mClps expression)” value [3] of the same molecule?
Its value is “induced torpor”.

With `[C-]#[O+]` [carbon monoxide] as the molecule, how does the symptoms on exposure ([4]; 50 ppm) read?
The symptoms on exposure was “no symptoms”.

What about the symptoms on exposure ([4]; 200 ppm, within two-three hours) of the same molecule?
The symptoms on exposure was “slight headache”.

And the symptoms on exposure ([4]; 400 ppm, within one to two hours)?
The symptoms on exposure was “frontal headache”.

What about the symptoms on exposure ([4]; 800 ppm, within 45 minutes) of the same molecule?
Its symptoms on exposure is “dizziness, nausea, and/or convulsions”.

What about the lethality on exposure ([4]; around 1000 ppm, exposure for more than around 1-2 minutes, an organism) of the same molecule?
Its lethality on exposure is “expire”.

Which results are given for `Nc1ncnc2c1ncn2[C@@H]1O[C@H](CO)[C@@H](O)[C@H]1O` [adenosine]?
survival of hypoxic atmosphere ([5]; adenosine 19 mM, 3.2 μl/min, total approximately 27 mg/kg, 4% O2 for 60 minutes): survived; behavioral abnormalities the following day [5, 6]: No behavioral abnormalities; recovery after return to room air [5, 6]: recovered completely
